In brackets after ≈: the same amount, converted by molar mass. Activity calls are given as the source filed them. The calls are words filed in the database; no cut-off is given here.
What was measured:
[1] = Kinetic solubility of compound at pH 7.4 incubated for 2 hrs by UV-HPLC analysis; type: physicochemical; details: buffer, read-out: Kinetic_solubility
[2] = biological target: Neuronal acetylcholine receptor subunit alpha-7 (Homo sapiens, UniProt P36544); assay: Positive allosteric modulator activity at human alpha7 nAChR expressed in Flp-In HEK293 cells assessed as increase in calcium influx incubated for 10 mins by fluorescence based analysis; type: cell-based
[3] = Metabolic stability in human liver microsome assessed as intrinsic clearance measured per mg of protein incubated for 40 mins; type: ADME; details: liver microsomes, read-out: CLH
[4] = Metabolic stability in Wistar rat liver microsome assessed as intrinsic clearance measured per mg of protein incubated for 40 mins; type: ADME; details: liver microsomes, read-out: CLH
[5] = Metabolic stability in NMRI mouse liver microsome assessed as intrinsic clearance measured per mg of protein incubated for 40 mins; type: ADME; details: liver microsomes, read-out: CLH
Mus musculus [6] = assay: Cognitive activity in scopolamine induced amnesia NMRI mouse model assessed as recognition index at 1 to 10 mg/kg, ip pretreated with compound for 30 mins followed by scopolamine induction by Y maze test; type: functional, organism-based; details: dose 1-10 mg/kg
[7] = Drug concentration in NMRI mouse brain at 1 mg/kg, ip measured after 1 hr by HPLC-MS/MS analysis; type: ADME, organism-based; details: read-out: Ct
[8] = Drug concentration in NMRI mouse brain at 3 mg/kg, ip measured after 1 hr by HPLC-MS/MS analysis; type: ADME, organism-based; details: read-out: Ct
[9] = Drug concentration in NMRI mouse brain at 10 mg/kg, ip measured after 1 hr by HPLC-MS/MS analysis; type: ADME, organism-based; details: read-out: Ct
[10] = Drug concentration in NMRI mouse plasma at 1 mg/kg, ip measured after 1 hr by HPLC-MS/MS analysis; type: ADME, organism-based
[11] = Drug concentration in NMRI mouse plasma at 3 mg/kg, ip measured after 1 hr by HPLC-MS/MS analysis; type: ADME, organism-based
[12] = Drug concentration in NMRI mouse plasma at 10 mg/kg, ip measured after 1 hr by HPLC-MS/MS analysis; type: ADME, organism-based
[13] = Ratio of drug concentration in brain to plasma in NMRI mouse plasma at 1 mg/kg, ip measured after 1 hr by HPLC-MS/MS analysis; type: ADME, organism-based
[14] = Ratio of drug concentration in brain to plasma in NMRI mouse plasma at 3 mg/kg, ip measured after 1 hr by HPLC-MS/MS analysis; type: ADME, organism-based
[15] = Ratio of drug concentration in brain to plasma in NMRI mouse plasma at 10 mg/kg, ip measured after 1 hr by HPLC-MS/MS analysis; type: ADME, organism-based
[16] = Efflux ratio of apparent permeability in human Caco-2 cells at 10 uM; type: ADME, cell-based
[17] = Apparent permeability in human Caco2 cells at 10 uM; type: ADME, cell-based; details: Caco-2
Mus musculus [18] = assay: Cognitive activity in scopolamine induced amnesia ip dosed NMRI mouse model assessed as minimum effective dose pretreated with compound for 30 mins followed by scopolamine induction; type: functional; details: 0.5 h
[19] = biological target: Voltage-gated inwardly rectifying potassium channel KCNH2 (Homo sapiens, UniProt Q12809); assay: Inhibition of hERG transfected in CHO cells at -80 mV holding potential by automated patch clamp assay; type: toxicity, cell-based
[20] = Metabolic stability in human Hepatocyte assessed as intrinsic clearance measured per million cells incubated for 40 mins; type: ADME, cell-based; details: hepatocytes, read-out: CLH
[21] = Toxicity in NMRI mouse assessed as effect on locomotor activity at 30 mg/kg, ip; type: organism-based; details: in vivo

Neuronal acetylcholine receptor subunit alpha-7, sequence (P36544 whole entry): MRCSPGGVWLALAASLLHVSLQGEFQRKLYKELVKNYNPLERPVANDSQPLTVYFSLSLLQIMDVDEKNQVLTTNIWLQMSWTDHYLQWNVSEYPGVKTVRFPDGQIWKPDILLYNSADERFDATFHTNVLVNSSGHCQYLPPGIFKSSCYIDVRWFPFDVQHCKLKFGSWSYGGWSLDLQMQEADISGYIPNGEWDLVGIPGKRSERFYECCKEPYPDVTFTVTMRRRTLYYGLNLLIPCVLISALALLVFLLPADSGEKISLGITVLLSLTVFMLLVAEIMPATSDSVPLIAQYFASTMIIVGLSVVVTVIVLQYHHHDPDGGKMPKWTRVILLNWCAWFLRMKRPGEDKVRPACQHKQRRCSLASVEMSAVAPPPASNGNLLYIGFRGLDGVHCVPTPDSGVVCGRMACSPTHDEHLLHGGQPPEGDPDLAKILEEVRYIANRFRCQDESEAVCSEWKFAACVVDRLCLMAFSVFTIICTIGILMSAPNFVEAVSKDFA
Voltage-gated inwardly rectifying potassium channel KCNH2, sequence (Q12809 whole entry): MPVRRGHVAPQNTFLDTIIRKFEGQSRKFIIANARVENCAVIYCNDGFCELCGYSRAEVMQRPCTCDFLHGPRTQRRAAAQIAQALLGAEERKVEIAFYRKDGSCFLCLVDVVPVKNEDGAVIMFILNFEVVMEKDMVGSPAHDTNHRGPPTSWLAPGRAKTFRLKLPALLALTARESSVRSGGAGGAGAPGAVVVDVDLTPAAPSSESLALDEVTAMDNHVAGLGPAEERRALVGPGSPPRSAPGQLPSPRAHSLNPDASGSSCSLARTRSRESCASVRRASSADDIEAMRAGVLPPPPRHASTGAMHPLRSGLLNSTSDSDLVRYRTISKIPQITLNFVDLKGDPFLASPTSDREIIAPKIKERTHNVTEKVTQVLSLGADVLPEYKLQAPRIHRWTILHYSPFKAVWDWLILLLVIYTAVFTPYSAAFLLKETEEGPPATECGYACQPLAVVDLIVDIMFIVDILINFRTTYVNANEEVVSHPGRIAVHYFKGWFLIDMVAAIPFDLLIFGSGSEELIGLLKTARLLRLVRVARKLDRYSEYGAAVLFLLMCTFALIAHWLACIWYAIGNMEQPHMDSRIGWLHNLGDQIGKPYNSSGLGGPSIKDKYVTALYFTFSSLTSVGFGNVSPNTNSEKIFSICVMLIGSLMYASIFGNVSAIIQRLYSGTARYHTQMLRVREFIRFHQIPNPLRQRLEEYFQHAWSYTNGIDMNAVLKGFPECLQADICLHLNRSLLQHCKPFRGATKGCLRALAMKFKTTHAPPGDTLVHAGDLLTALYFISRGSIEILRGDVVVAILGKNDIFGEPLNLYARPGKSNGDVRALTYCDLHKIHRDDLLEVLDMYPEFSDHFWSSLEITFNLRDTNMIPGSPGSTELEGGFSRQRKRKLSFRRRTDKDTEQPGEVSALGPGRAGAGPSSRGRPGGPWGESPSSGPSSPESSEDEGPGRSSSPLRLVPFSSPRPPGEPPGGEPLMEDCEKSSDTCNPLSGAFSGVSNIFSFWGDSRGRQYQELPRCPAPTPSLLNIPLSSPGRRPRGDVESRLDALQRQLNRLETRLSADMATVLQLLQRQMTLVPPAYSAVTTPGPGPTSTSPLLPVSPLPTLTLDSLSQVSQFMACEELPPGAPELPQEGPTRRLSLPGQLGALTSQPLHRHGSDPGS

| Structure (SMILES) | solubility kinetic at 2 h [1] [µM] | EC50 [2] [µM] | microsomal CLint [3] [µL/min/mg] | microsomal CLint [4] [µL/min/mg] | microsomal CLint [5] [µL/min/mg] | Activity (Mus musculus [6]) | concentration at 1 h [7] [ng/g] | concentration at 1 h [8] [ng/g] | concentration at 1 h [9] [ng/g] | concentration at 1 h [10] [µg/mL] | concentration at 1 h [11] [µg/mL] | concentration at 1 h [12] [µg/mL] | Kp at 1 h [13] | Kp at 1 h [14] | Kp at 1 h [15] | MED (Mus musculus [18]) [mg/kg] | other results |
| --- | --- | --- | --- | --- | --- | --- | --- | --- | --- | --- | --- | --- | --- | --- | --- | --- | --- |
| O=C(NCc1ccc2[nH]ccc2c1)N1CC(COc2ccc(C(F)(F)F)c(F)c2)C1 | 14.2 (≈ 5.98 µg/mL) | 0.085 | 39 | 44 | 36 | Active | 201 | 678 | 2810 | 0.167 | 0.61 | 4.23 | 1.2 | 1.12 | 0.66 | 3 | efflux ratio at 10 µM [16]: 1.3; Papp at 10 µM [17]: 630 nm/s; IC50 [19]: 10 µM |
| Cn1ccc2cc(CNC(=O)N3CC(COc4ccc(C(F)(F)F)cc4)C3)cnc21 | 2.5 (≈ 1.05 µg/mL) | 0.2 | 17 | 77 | 123 | Active | 46.8 | 174 | 438 | 0.179 | 0.689 | 2.09 | 0.26 | 0.25 | 0.22 |  |  |
| Cn1ccc2cc(CNC(=O)N3CC4(CC(=O)c5ccc(F)cc5O4)C3)ccc21 | 46 (≈ 18.1 µg/mL) |  | 13 | 30 | 49 | Active | 29 | 78.5 | 248 | 0.107 | 0.262 | 2.05 | 0.27 | 0.3 | 0.31 | 10 | hepatocyte CLint [20]: 10.3 µL/min/1e6 cells; Activity [21]: Non-Toxic |

Source: ChEMBL document CHEMBL5375957, “Optimization of Novel α7 Nicotinic Acetylcholine Receptor Positive Allosteric Modulators and the Discovery of a Preclinical Development Candidate Molecule (RGH-560)” (J Med Chem, 2023)
